Measured values: PMC10587869, “Deciphering Structural Determinants Distinguishing Active from Inactive Cell-Penetrating Peptides for Cytosolic mRNA Delivery” (Bioconjugate Chemistry, 2023)
Positions of bridges follow the written chain, without caps; N, C: chain ends. No end group written: not given here.

How the values were obtained:
[1] = Dynamic light scattering of peptide-mRNA nanoparticles; type: physicochemical; conditions: hLF-v1 mRNA polyplexes, context: upon polymerization; N/P not printed at the place; DLS 25 °C, no serum
Description: (§1) Peptide-mRNA polyplexes were formulated as previously described.[40],[41] In short, two separate stock solutions of mRNA and peptide were prepared in MQ and simultaneously dispensed with electronically dispensing pipettes (E4 Electronic Pipette, LTS E4-100XLS+, Mettler-Toledo Rainin, LLC, Oakland, CA, USA) at a flow rate of 11 mL min^–1. All polyplexes were formed at a concentration of at least 10-fold the final intended concentration for transfections.
The hydrodynamic diameter of the nanoparticles was measured at 25 °C by dynamic light scattering (DLS) using a Zetasizer Nano ZS (Malvern Instruments, Worcestershire, UK) equipped with a 4 mW He–Ne laser (633 nm) with a backscatter detection angle of 173°. At least 40 μL of 10 times concentrated nanoparticle solution was measured in a UV-cuvette (BrandTech Scientific, Essex, CT, USA, Cat. No. 759200).

MC3T3 cells [2] = assay: eGFP protein expression after mRNA transfection, live-cell confocal microscopy; type: cell-based, murine; conditions: N/P 3, eGFP mRNA, 24 h post-transfection
Description: as §1
(§2) One day before mRNA transfections, 10 000 MC3T3 cells in 100 μL were seeded in 96-well plates (Greiner Bio-One Cat. No. 655180) or 20 000 cells in 200 μL in μ-slide eight-well chambers (Ibidi, Gräfelfing, Germany). These seeding densities ensured confluency between ∼70 and 90% on the day of transfection. mRNA transfections were performed by removing the complete medium from the wells and replacing it with mRNA nanoparticles diluted 10 times in complete medium. Cells were exposed to mRNA nanoparticles for 2 h at 37 °C, 5% CO2, in a humidified incubator. For some experiments, cells were stained with 200 μL of 1 μM CellTrace yellow (Thermo Fisher Scientific, Cat. No. C34567) directly after the nanoparticle incubation, according to the manufacturer’s instructions. Regardless of the tested N/P ratio or type of nanoparticle, mRNA inputs were equalized across conditions, resulting in 107 ng/well for luciferase assays in 96-well plate formats and 214 ng/well for confocal microscopy experiments. […] For untreated controls, complete cell culture medium was added and refreshed as often as in the experimental conditions.
Before microscopy, complete medium containing phenol red was replaced with an equal volume of phenol red-free and HEPES-formulated Opti-MEM (Gibco). The uptake of Cy5-eGFP mRNA-formulated nanoparticles was assessed 2 h post-transfection, and eGFP expression was assessed 24 h post-transfection. […] All laser lines were generated by a white-light laser, and emissions were detected with hybrid detectors. […]

MC3T3 cells [3] = assay: Cellular uptake of Cy5-eGFP mRNA polyplexes, live-cell confocal microscopy; type: cell-based, murine
Description: as §1, §2
Before microscopy, complete medium containing phenol red was replaced with an equal volume of phenol red-free and HEPES-formulated Opti-MEM (Gibco). The uptake of Cy5-eGFP mRNA-formulated nanoparticles was assessed 2 h post-transfection, and eGFP expression was assessed 24 h post-transfection. Live-cell imaging was performed using a Leica TCS SP8 SMD (Leica Microsystems, Mannheim, Germany) with an HC PL APO CS2 63×/1.20 water objective and a temperature-controlled stage at 36.5 °C. eGFP was excited at 488 nm (emission: 500–550 nm). CellTrace yellow was excited at 555 nm (emission: 570–620 nm), and Cy5 was excited at 633 nm (emission: 650–690 nm). All laser lines were generated by a white-light laser, and emissions were detected with hybrid detectors. All channels were sequentially acquired to avoid crosstalk at a bit depth of 12. Except for the LMM eGFP conditions (reduced gain), equal acquisition settings (pixel size, pinhole, laser power, and gain) per fluorophore were used within the experiments.
Quantification of the Cy5 fluorescence was performed as previously described.[59],[60] In brief, five separate images (unless stated otherwise) containing approximately 10 cells per image were analyzed using ImageJ (version 1.53f51). A square mask of 184.52 μm^2 was used to quantify the raw integrated density (sum of all pixels in a region of interest). Importantly, cell confluencies ranged from ∼80–95%, ensuring minimal impact of cell density on total fluorescence values. The brightness and contrast of the images were adjusted to find a cell-free region to determine background fluorescence. Then, a circle was drawn to measure the background fluorescence. To obtain the corrected total cellular fluorescence (CTCF), the area (in pixels) was multiplied by the mean gray value of the background and subsequently subtracted from the raw integrated density.

[4] = Heparin-mediated polyplex decomplexation assay (QuantiFluor RNA); type: physicochemical; conditions: N/P 1 and 3, low or high heparin amounts; Figure S8
Description: For testing the stability of mRNA polyplexes, a polyanion decomplexation assay, mediated by the polyanionic heparin (heparin sodium salt from porcine intestinal mucosa, Cat. No. H3149-100 KU, Sigma-Aldrich) was performed. mRNA polyplexes were freshly prepared with uncapped SecNLuc mRNA (RIBOPRO), as described in the section mRNA Nanoparticle Formation. Following polyplex formation, all samples were incubated for at least 30 min at room temperature. Importantly, separate stock solutions of heparin were made to ensure an equal volume across conditions regardless of heparin concentration. For decomplexation, 5 μL of 10× polyplexes were diluted in RNase-free TE-buffer at pH 7.5 (Promega, Cat. No. E260A) supplemented with an equal volume of heparin across conditions to a total volume of 50 μL in a 384-well plate (Greiner Bio-One, Cat. No. 781101). All samples were quickly spun down before incubation at 37 °C for 90 min. The QuantiFluor RNA System (Promega, Cat. No. E3310) was used with a 1:2000 dilution of RNA-binding dye for all tested conditions to detect released mRNA. For quantification, a calibration curve with uncapped SecNLuc mRNA was made, spanning from 0.19 ng mRNA/well to 50 ng mRNA/well. For detection of released mRNA, the dye was excited at 485 nm, and emission was collected at 535 nm using the VICTOR X3Multilabel Plate Reader (PerkinElmer)
Data analysis was performed using GraphPad Prism (GraphPad Software, version 8.4.2, San Diego, CA, USA). Data are presented as means ± standard deviation (SD) unless stated otherwise. Means were calculated by first averaging the technical replicates, for which outliers were identified using Grubbs’ test, followed by averaging the biological replicates. Before statistical analysis, all data were checked for normal distribution with a Shapiro–Wilk test. Statistical analysis was done using one- or two-way analysis of variance (ANOVA). Multiple comparisons were corrected using Tukey’s test with 95% confidence intervals. For the mRNA standard curve used in heparin decomplexation assays, the coefficient of variation was determined both in the standards and in samples and was ≤20%. The standard curve was fitted using a sigmoidal four-parameter logistic curve. The standard curve was back fitted with ±10% accuracy to verify the correctness of the fit. The signals from samples were blanked with the appropriate solution (TE buffer) before calculating interpolations. p > 0.05 was considered not significant, and p values were reported using the GraphPad Prism style (*p ≤ 0.05, **p ≤ 0.01, ***p ≤ 0.001, and ****p ≤ 0.0001).

HeLa cells = assay: Luciferase expression after SecNLuc mRNA transfection (Nano-Glo); type: cell-based, human
MC3T3 cells [5] = assay: as above; type: cell-based, murine
Description: as §1
One day before mRNA transfections, 10 000 MC3T3 cells in 100 μL were seeded in 96-well plates (Greiner Bio-One Cat. No. 655180) or 20 000 cells in 200 μL in μ-slide eight-well chambers (Ibidi, Gräfelfing, Germany). These seeding densities ensured confluency between ∼70 and 90% on the day of transfection. mRNA transfections were performed by removing the complete medium from the wells and replacing it with mRNA nanoparticles diluted 10 times in complete medium. Cells were exposed to mRNA nanoparticles for 2 h at 37 °C, 5% CO2, in a humidified incubator. […]
The extent of luciferase production was determined using the Nano-Glo Luciferase Assay (Promega, Madison, WI, USA, Cat No. N1130) according to the manufacturer’s instructions. […] Luminescence was measured after briefly shaking the plate using the VICTOR X3Multilabel Plate Reader (PerkinElmer, Waltham, MA, USA).

Sequence | monodisperse particle size by DLS [1] | eGFP protein expression (MC3T3 cells [2]) | effect of oligomerization on uptake (MC3T3 cells [3]; 2 h incubation, Cy5-labeled mRNA, polymerized vs monomeric, Figure 5, Figure S5) | uptake of Cy5-labeled mRNA polyplexes of amphipathic hLF variants (MC3T3 cells [3]; 2 h incubation, live-cell confocal microscopy, serum present, Figure 5, four independent experiments) | difference in heparin decomplexation [4] | luciferase expression (HeLa cells; N/P 3, compared to untreated) | luciferase expression higher than PF14 (HeLa cells; N/P 5) | luciferase expression as fraction of PF14-induced expression (MC3T3 cells [5]; MC3T3, N/P 5) | luciferase activity (MC3T3 cells [5]; MC3T3, independent of the N/P ratio (3 or 5)) | ratio of Poly hLF-x vs Mono-hLF-x, Corrected Total Cellular Fluorescence (Cy5) (MC3T3 cells [3]; Cy5-eGFP mRNA polyplexes, 2 h post-transfection, n = 5 fields of view per condition) | cellular uptake of Cy5-labeled eGFP mRNA (MC3T3 cells [3]; N/P 3 polyplexes (LMM lipoplexes), 2 h post-transfection, complete medium with 10% FBS, confocal, Figure 1, five independent experiments)
KCFQWLRNLRKVRALLVSCLKR [hLF-v1, amphipathic hLF variant with PF14 motifs and the same cationic amino acids as hLF-WT] | 72 ± 2.1 nm | fewer cells were positive for eGFP expression than for PF14 | no benefit for uptake | performed the worst and tended to aggregate upon polymerization |  |  |  |  |  |  | 
KCFQWLRNLRKVRALLVSCLKR (disulfide 2-19 (inferred)) [poly hLF-v1, polymeric hLF-v1] |  | successful delivery |  |  | no difference | significant luciferase expression | ~5% | approximately half |  |  | 
KCFQWQRNMRKVRGPPVSCIKR [hLF-WT] |  | no expression |  |  |  |  |  |  | no activity | 2.33 x | only little uptake
